Results taken from patent publication US20250367209A1 (SOUTHERN RESEARCH INSTITUTE, priority 2022, published 2025).
“Also recorded” adds a separate entry of the source.

What was measured:
primary neurons = assay: Multi-electrode array, Aβ-induced network hyperexcitability; type: cell-based, rat; conditions: one hour preincubation, 500 nM Aβ oligomers, four hours
Source text: Primary neuron cultures: All animal procedures were approved by the Institutional Animal Care and Use Committee at the University of Alabama at Birmingham (UAB). As before (Rush, et al. (2020) Neurobiol Dis 134, 104668; Voskobiynyk, et al. (2020) eLife 9, e57354), primary rat neurons were isolated from timed-pregnant Sprague-Dawley rats. Briefly, dams were euthanized with isoflurane anesthesia asphyxiation, and hippocampal tissue was isolated from E19 embryos in Hibernate E, then digested in papain for 10 minutes at 37° C. Neurons were triturated into a single cell suspension in Neurobasal supplemented with B-27, L-Glutamine, and 10% FBS, then plated in 96-well plates coated with PDL and laminin at 30,000 neurons per well in 200 uL medium or in 24-well coated plates with or without coverslips at 50,000 per well. Cultures were maintained at 37° C. with 5% CO2. […]
Multi-electrode arrays: As in a prior study (Voskobiynyk, et al. (2020) eLife 9, e57354), 30,000 neurons were plated per well in a 48-well MEA plate. […] 69 for one hour, then 500 nM Aβ oligomers was applied and neurons were returned to the incubator for four hours before being recorded for 20 more minutes. […] Mean baseline frequency for each well was calculated from unit frequencies, then each unit in the post-treatment recording was normalized to the baseline average of its well. […]

full-length Tau = full-length Tau (Homo sapiens (Human), UniProt P10636); assay: Isothermal titration calorimetry, full-length Tau; type: binding
full-length Tau, sequence (P10636 other isoform, or with tags, fused parts or gaps): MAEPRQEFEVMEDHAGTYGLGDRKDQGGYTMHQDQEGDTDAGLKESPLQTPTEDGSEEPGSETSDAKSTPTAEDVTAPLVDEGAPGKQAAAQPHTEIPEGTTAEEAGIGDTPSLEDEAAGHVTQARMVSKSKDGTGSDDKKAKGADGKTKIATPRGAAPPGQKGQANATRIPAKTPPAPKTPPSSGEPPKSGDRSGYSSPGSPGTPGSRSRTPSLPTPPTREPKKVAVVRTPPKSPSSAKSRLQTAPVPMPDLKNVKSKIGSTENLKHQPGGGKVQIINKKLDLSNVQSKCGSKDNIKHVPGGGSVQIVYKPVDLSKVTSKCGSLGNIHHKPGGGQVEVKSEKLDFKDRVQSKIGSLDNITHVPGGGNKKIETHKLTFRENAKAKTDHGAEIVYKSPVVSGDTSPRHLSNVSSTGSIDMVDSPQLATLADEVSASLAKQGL
Source text: Human Fyn-SH3 domain with GST-tag at the N-terminus and a Strep-tag II ([…]) at the C-terminus (GST-Fyn-SH3-Strep) was cloned into pPR-IBA1 vector (IBA Lifesciences) (Cochran, et al. (2014) J. Biomol. Screen. 19, 1338-1349). Codon-optimized human 4R2N Tau for E. coli expression with a Strep-tag II at the C-terminus (His-Tau-Strep) was cloned into pET-28a(+) vector (Novagen). The constructs were transformed into E. coli BL-21(DE3) competent cells (Novagen). For GST-Fyn-SH3-Strep purification, a single colony was inoculated in Luria-Bertani (LB) broth at 37° C. overnight. 10 mL cell culture was added into 500 mL LB medium and cultured at 37° C. 0.5 mM Isopropyl β-D-1-thiogalactopyranoside (IPTG) was added into the culture when OD600 reached 0.7. Cells were further cultured at 25° C. for 4 hours and harvested. Cell pellet was resuspended in lysis buffer (20 mM Tris pH 7.9, 300 mM NaCl, 1 mM TCEP) with 1 tablet of EDTA-free protease inhibitors (ThermoFisher) and 1 mg/ml lysozyme. Cells were disrupted by sonication and debris was removed by centrifugation at 9500 rpm for 1 hour. Supernatant was loaded onto a glutathione-sepharose column (Cytiva). The column was washed in lysis buffer and protein eluted in lysis buffer containing 25 mM reduced glutathione. For His-Tau-Strep protein purification, cells were inoculated in LB broth medium and cultured at 37° C. overnight. A 10 mL overnight culture was added to 500 mL of auto-induction medium (Studier, F. W. (2005) Protein Expr Purif 41, 207-34) and cells were cultured at 37° C. for about 5 hours. The temperature was lowered to 18° C., and cells were cultured overnight. Cells were harvested and resuspended in lysis buffer with 20 mM imidazole, protease inhibitors, and lysozyme. Cells were disrupted by sonication and cell pellets were spun down at 9500 rpm for 1 hour. Supernatant was loaded onto Ni-NTA column (Cytiva) and the column was washed in lysis buffer with 20 mM imidazole. His-Tau-Strep protein was eluted in lysis buffer containing 400 mM imidazole. Both eluted GST-Fyn-SH3-Strep and His-Tau-Strep protein solutions were passed through G-25 desalting column (Cytiva) with lysis buffer and loaded onto high capacity Strep-Tactin column (IBA Lifesciences). The columns were washed in Buffer W (IBA Life sciences) and proteins were eluted in Buffer E (IBA life sciences). The eluted proteins were passed through G-25 desalting column again. […]
Purified full-length Tau and FynSH3 were dialyzed into 20 mM Tris and 150 mM NaCl, pH 8.0 with Slide-A-Lyzer G2 Dialysis Cassettes with 10K MWCO (ThermoFisher #87729). […] Protein concentrations were measured on a Nanodrop2000 (ThermoFisher) based on absorbance at 280 nm. […]

Q: How did the “Aβ-induced network hyperexcitability, multi-electrode array” value (primary neurons) turn out when `O=C(CN1CCOc2ccccc21)Nc1nnc(-c2ccccn2)[nH]1` [compound no. 69] was run?
A: prevented Aβ-induced network8hyperexcitability at both 3 and 15 μM; also recorded: ameliorates Aβ-induced network hyperexcitability

Q: And the “ΔG, ITC with full-length Tau” value (full-length Tau; 25° C.)?
A: -6.7 kcal/mol

Q: And the “ΔH, ITC with full-length Tau” value (full-length Tau; 25° C.)?
A: -1.5 kcal/mol

Q: What about the Kd (full-length Tau; 25° C., read-out: Kd, ITC with full-length Tau) of the same molecule?
A: 11.9 µM

Q: And the “n, ITC with full-length Tau” value (full-length Tau; one set of sites model)?
A: 0.9
